Usually IC50 stands for the concentration that gives 50% inhibition.

We go through 51 compounds from patent US7893098B2, “Pyrrole and pyrazole DAAO inhibitors” (Sepracor Inc., priority 2003, dated 2011).

Data set [1] has as its target Purified pig DAAO (Sus scrofa, UniProt P00371). The experiment in a line: In vitro measurement of DAAO activity (Amplex Red H2O2 / phenylglycine assay). It is filed as biochemical. The note with it: read-out: Inhibition of DAAO, IC50. Here is the method: Purified pig DAAO, added to a buffered mixture of 50 mM D-Serine produces H202 in stoichiometric amounts for each D-Serine molecule oxidized. H202 production can be monitored with a commercially available dye Amplex Red, which in the presence of H202, is converted to the fluorescent product resorufin. For each described inhibitor, the fluorescence was also measured during additions of 80 μM H202 in the absence of DAAO, to control for artifactual inhibition of the dye conversion, and to quantify the amount of H202 produced. In an alternative assay of DAAO activity, the purified pig DAAO is added to buffered mixture of 1 mM phenylglycine in the presence of compounds. The activity of DAAO is monitored spectrophotometrically by its enzymatic conversion of phenylglycine to benzoylformic acid with optical absorption at 252 nm.
Inhibitors of DAAO's enzymatic cycle were serially diluted to reduce the level of inhibition. The parameters of a non-linear equation were adjusted to fit the resulting series of inhibition levels to extrapolate the concentration of compound where 50% inhibition is achieved (IC50). These numbers are averaged for the number (n) of independent measurements (on separate days) of the inhibition.

The nature of data set [2]: Rat brain uptake, carotid perfusion. It is filed as in vivo. The note with it: 30 second perfusion into left hemisphere, PBS pH 7.4; N of 4 rats. An excerpt: Experiments that evaluate the rat brain penetration of test compounds use a perfusion system where the left carotid artery is cannulated and the branch arteries are tied off. The test compound plus internal controls are perfused for 30 seconds into the left hemisphere in phosphate buffered saline at pH 7.4. The internal controls are atenolol (with low brain uptake) and antipyrine (with high brain uptake). After a 30 second washout with perfusate, the brain is removed surgically. The left hemisphere is homogenized; test compounds (plus internal controls) are extracted from brain homogenate, and analyzed using LC/MS/MS to determine the concentration of test compound and internal controls in the brain.

Sequence of Purified pig DAAO (P00371 whole entry): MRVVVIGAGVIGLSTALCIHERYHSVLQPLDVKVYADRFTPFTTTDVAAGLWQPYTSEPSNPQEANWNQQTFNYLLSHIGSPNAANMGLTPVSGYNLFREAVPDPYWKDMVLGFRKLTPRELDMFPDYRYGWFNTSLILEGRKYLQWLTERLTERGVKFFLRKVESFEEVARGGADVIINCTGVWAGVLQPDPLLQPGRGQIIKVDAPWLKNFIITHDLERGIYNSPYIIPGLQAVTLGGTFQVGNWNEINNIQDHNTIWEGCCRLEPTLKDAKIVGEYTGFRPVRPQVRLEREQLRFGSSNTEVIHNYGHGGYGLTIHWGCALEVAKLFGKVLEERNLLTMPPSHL

In the case of `O=C(O)c1ccc(CCc2ccccc2)[nH]1` [Compound 36, 5-phenethyl-1H-pyrrole-2-carboxylic acid], the IC50 in data set [1] is less than 100 µM.

With `O=C(O)c1ccc(Cc2ccccc2)[nH]1` [Compound 32, 5-benzyl-1H-pyrrole-2-carboxylic acid], the IC50 in data set [1] is greater than 100 µM.

Consider `O=C(O)c1cc(COc2ccccc2)[nH]n1` [Compound 42, 5-phenoxymethyl-1H-pyrazole-3-carboxylic acid], for which the concentration for half-maximal inhibition (IC50) in data set [1] was less than 1 µM. On to `Cc1cc(C(=O)O)no1`, for which the IC50 in data set [1] is less than 100 µM.

On to `O=C(O)c1cc([N+](=O)[O-])[nH]n1`, for which the IC50 in data set [1] is less than 1 µM. Same read-out and setting: the result for `O=C(O)c1cc(CCc2ccc(Cl)cc2)n[nH]1` [Compound 69, 5-[2-(4-Chlorophenyl)-ethyl]-1H-pyrazole-3-carboxylic acid] reads less than 1 µM. Take `O=C(O)c1n[nH]cc1[N+](=O)[O-]`: the IC50 in data set [1] was less than 1 µM. Take `CC(C)CCc1cc(C(=O)O)n[nH]1` [Compound 48, 5-(3-methylbutyl)-1H-pyrazole-3-carboxylic acid]: the IC50 in data set [1] is less than 10 µM.

On to `O=C(O)c1cc2c([nH]1)CCCC2`, for which the IC50 in data set [1] is less than 10 µM. For `O=C(O)c1cc(CCc2ccc(Cl)cc2)c[nH]1` [Compound 39, 4-[2-(4-chlorophenyl)-ethyl]-1H-pyrrole-2-carboxylic acid], the “Rat Brain Uptake Rate, pmol/g brain/sec” value in data set [2] is given as 204 pmol/g brain/sec. Take `C[C@@H](Cc1cc(C(=O)O)n[nH]1)c1ccccc1` [Compound 80, (S)-5-(2-phenylpropyl)-1H-pyrazole-3-carboxylic acid]: the IC50 in data set [1] was less than 10 µM.

Take `O=C(O)c1cc(CCc2ccccc2)on1`: the IC50 in data set [1] was less than 100 µM. Regarding `CC(C)=CCCc1cc(C(=O)O)n[nH]1` [Compound 51, 5-(4-Methylpent-3-enyl)-1H-pyrazole-3-carboxylic acid], the IC50 in data set [1] was less than 1 µM. Take `CC1CCc2[nH]nc(C(=O)O)c2C1` (centres unmarked): in data set [1], the IC50 is less than 10 µM. As to `O=C(O)c1n[nH]c2c1CCC2` [drawing 44], the IC50 in data set [1] is less than 1 µM. In the case of `O=C(O)c1cc(CCCc2ccccc2)c[nH]1` [Compound 45, 4-(3-phenylpropyl)-1H-pyrrole-2-carboxylic acid], in data set [1], the IC50 was less than 100 µM. On to `CCCCCCCCCCC(=O)c1c[nH]c(C(=O)O)c1`, for which the IC50 in data set [1] was less than 100 µM.

Regarding `Cc1cc(C)c(C(=O)O)[nH]1`, the IC50 in data set [1] is greater than 100 µM. `CC(C)C1CCc2[nH]nc(C(=O)O)c2C1` (centres unmarked): in data set [1], the IC50 is less than 100 µM. Consider `O=C(O)c1n[nH]c2c1CCc1ccccc1-2`, for which the IC50 in data set [1] is greater than 100 µM. With `O=C(Cc1ccccc1)c1c[nH]c(C(=O)O)c1`, the IC50 in data set [1] is less than 100 µM.

`O=C(O)c1cc(CCCC2CCCC2)c[nH]1` [Compound 76, 4-(3-Cyclopentylpropyl)-1H-pyrrole-2-carboxylic acid]: the 50% inhibitory concentration (IC50) in data set [1] is less than 10 µM. Take `O=C(O)c1n[nH]c2c1CCCCC2` [Compound 15, 1,4,5,6,7,8-Hexahydrocycloheptapyrazole-3-carboxylic acid]: the IC50 in data set [1] was less than 10 µM.

For `O=C(O)c1n[nH]c2c1CCCC2C1CCCCC1` (centres unmarked), in data set [1], the IC50 was less than 100 µM. Take `CC(Cc1cc(C(=O)O)n[nH]1)c1ccccc1` (centres unmarked) [Compound 58, 5-(2-phenylpropyl)-1H-pyrazole-3-carboxylic acid]: in data set [1], the IC50 is less than 1 µM. Still for that read-out and setting: the result for `O=C(O)c1cc(CCc2ccccc2Br)c[nH]1` [Compound 65, 4-[2-(2-bromophenyl)-ethyl]-1H-pyrrole-2-carboxylic acid] reads less than 1 µM. Turning to `O=C(O)c1n[nH]c2c1COCC2`, the IC50 in data set [1] was less than 10 µM.

With `CC1CCCc2c(C(=O)O)n[nH]c21` (centres unmarked), the IC50 in data set [1] is less than 10 µM. For `CC1CCc2c(C(=O)O)n[nH]c2C1` (centres unmarked), the IC50 in data set [1] was less than 100 µM. As for `O=C(O)c1cc(CCc2ccc(F)cc2)c[nH]1` [Compound 73, 4-[2-(4-fluorophenyl)-ethyl]-1H-pyrrole-2-carboxylic acid], in data set [1], the IC50 is less than 1 µM. In the case of `O=C(O)c1n[nH]c2c1CCCC2Cc1ccccc1` (centres unmarked), in data set [1], the IC50 is less than 10 µM. As for `CC(=O)c1c[nH]c(C(=O)O)c1`, the concentration for half-maximal inhibition (IC50) in data set [1] was less than 100 µM. Turning to `O=C(O)c1n[nH]c2c1CCCCCC2`, the IC50 in data set [1] was less than 10 µM. `COc1ccc(CCc2cc(C(=O)O)n[nH]2)cc1` [Compound 24, 5-[2-(4-Methoxyphenyl)-ethyl]-1H-pyrazole-3-carboxylic acid]: the IC50 in data set [1] was less than 1 µM. With `CC(Cc1ccccc1)c1cc(C(=O)O)n[nH]1` (centres unmarked) [Compound 62, 5-(1-methyl-2-phenylethyl)-1H-pyrazole-3-carboxylic acid], the IC50 in data set [1] is less than 1 µM. Regarding `CC(C)CCCc1cc(C(=O)O)n[nH]1` [Compound 18, 5-(4-methylpentyl)-1H-pyrazole-3-carboxylic acid], the “Rat Brain Uptake Rate, pmol/g brain/sec” value in data set [2] amounted to 17 pmol/g brain/sec. For the same compound, the IC50 in data set [1] was less than 1 µM. In the case of `O=C(O)c1n[nH]c2c1CCCC2CCc1ccccc1` (centres unmarked), the concentration for half-maximal inhibition (IC50) in data set [1] was less than 100 µM. For the compound `Cc1cc(C(=O)O)n[nH]1`, the IC50 in data set [1] is less than 10 µM. On the same count and under the same terms, the result for `CC(C)c1cc(C(=O)O)n[nH]1` reads less than 1 µM; that for `O=C(O)c1cc[nH]n1`, less than 100 µM. Turning to `CC1CCCC(C)(C)C1CCc1cc(C(=O)O)n[nH]1` (centres unmarked) [Compound 54, 5-[2-(2,2,6-trimethylcyclohexyl)-ethyl]-1H-pyrazole-3-carboxylic acid], the IC50 in data set [1] was less than 100 µM.

Turning to `O=C(O)c1n[nH]c2c1CCCC2`, the IC50 in data set [1] is less than 1 µM. For `O=C(O)c1ccc[nH]1`, the IC50 in data set [1] is less than 10 µM. Regarding `O=C(O)c1cc(CCc2ccccc2)c[nH]1`, the 50% inhibitory concentration (IC50) in data set [1] was less than 1 µM. As for `CC1(C)CCc2c(C(=O)O)n[nH]c21` [Compound 3, 6,6-Dimethyl-1,4,5,6-tetrahydrocyclopentapyrazole-3-carboxylic acid], the 50% inhibitory concentration (IC50) in data set [1] was less than 10 µM.

Regarding `O=C(O)c1n[nH]c2c1CC(OCc1ccccc1)CC2` (centres unmarked), in data set [1], the IC50 was less than 100 µM. Regarding `CC1CCc2c(C(=O)O)n[nH]c21` (centres unmarked) [Compound 6, 6-methyl-1,4,5,6-tetrahydrocyclopentapyrazole-3-carboxylic acid], in data set [1], the IC50 is less than 10 µM. For the compound `O=C(Cc1ccc(Cl)cc1)c1c[nH]c(C(=O)O)c1`, the IC50 in data set [1] was less than 100 µM. Regarding `O=C(O)c1n[nH]c2c1CCC2` [drawing 70], in data set [2], the “Rat Brain Uptake Rate, pmol/g brain/sec” value came to 6 pmol/g brain/sec. With `O=C(O)c1cc(CCc2ccccc2)[nH]n1` [Compound 21, 5-phenethyl-1H-pyrazole-3-carboxylic acid], the “Rat Brain Uptake Rate, pmol/g brain/sec” value in data set [2] was determined as 6 pmol/g brain/sec. The IC50 in data set [1] was less than 1 µM. For `O=C(O)c1cc(CCc2ccc(Cl)cc2)c(Br)[nH]1` [Compound 70, 5-bromo-4-[2-(4-chlorophenyl)-ethyl]-1H-pyrrole-2-carboxylic acid], in data set [1], the IC50 was less than 0.1 µM.
